This is an account of results in patent US8180580B2, “Method for identifying a compound that modulates SIR2 protein activity” (The Wistar Institute, priority 2007, dated 2012).

One assay addresses Sir2 (Saccharomyces cerevisiae, UniProt P53686). It is filed as biochemical. On the procedure: In parallel to the in silico screen, a solution screen for Sir2 effectors was carried out. A library containing about 10,000 Diversity Oriented Synthesis (DOS) compounds and natural product sub-libraries of compounds was screened using both yHst2 and hSIRT1 proteins.
A further assay deals with Hst2 (residues 1-294) (Saccharomyces cerevisiae, UniProt P53686). Kind of assay: biased in vitro screening assay for relief of nicotinamide inhibition (Fluor de Lys). It is filed as biochemical. The note with it: 130 μM nicotinamide present. The method, then: This in vitro screen was carried out as follows.
Sequence of Hst2 (residues 1-294) (P53686 1-294): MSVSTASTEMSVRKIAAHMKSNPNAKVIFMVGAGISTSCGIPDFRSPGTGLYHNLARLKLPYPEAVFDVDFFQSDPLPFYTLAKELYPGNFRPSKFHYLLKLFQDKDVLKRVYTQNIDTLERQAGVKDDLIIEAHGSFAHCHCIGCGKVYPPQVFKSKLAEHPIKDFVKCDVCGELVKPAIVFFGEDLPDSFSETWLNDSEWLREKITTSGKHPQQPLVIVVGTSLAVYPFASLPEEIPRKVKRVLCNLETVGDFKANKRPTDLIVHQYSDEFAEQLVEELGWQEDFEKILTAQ

Sequence of Sir2 (P53686 1-294): as above

By IC50 is commonly meant the concentration at which inhibition is half-maximal. Regarding `O=C(O)CCN1Cc2ccccc2C1=O`, half-maximal inhibition on Sir2 (IC50) was put at 19.8 ± 1.1 µM.

As to `CC1(C)CC(=O)C2=C(C1)NC1=C(C(=O)CC(C)(C)C1)C2c1cccc(F)c1` [9-(3-Fluoro-phenyl)-3,3,6,6-tetramethyl-2,4,6,7,9,10-hexahydro-2H,5H-acridine-1,8-dione], the “Fold Activation” value at Hst2 (residues 1-294) was 2.2.

Turning to “6-(4-Fluoro- phenyl)-2,3- diphenyl-1,5- dihydro- imidazo[1,2- α]imidazole”, on Hst2 (residues 1-294), the “Fold Activation” value amounted to 2.9.

On Sir2, Zinc pyrithione [reference compound] had an IC50 of 1.8 ± 1.3 µM.
